Experimental data taken from patent US12077503B2, “Substituted cyclic amides and their use as herbicides” (FMC CORPORATION, priority 2015, dated 2024).

Assays:
Test in all cases: Test C flooded paddy test
Assay type in all cases: in vivo
[1] = tested on: sedge, umbrella (small-flower umbrella sedge, Cyperus difformis); details: Flood; for Plant response rating (scale of 0 to 100), Sedge, Umbrella: 0 is no effect, 100 is complete control
In short: (§1)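 Test compounds were dosed straight into the flood water of pots holding 2-leaf-stage plants, with water kept 3 cm above the soil. Greenhouse plants were scored visually against controls after 13 to 15 d, from 0 (no effect) to 100 (complete control).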

[2] = tested on: barnyardgrass (Echinochloa crus-galli); details: Flood; for Plant response rating (scale of 0 to 100), Barnyardgrass: 0 is no effect, 100 is complete control
In short: as §1

[3] = tested on: ducksalad (Heteranthera limosa); details: Flood; for Plant response rating (scale of 0 to 100), Ducksalad: 0 is no effect, 100 is complete control
In short: as §1

[4] = 16 g ai/ha, scale 0 to 100 (0 no effect, 100 complete control), 13 to 15 d

| SMILES | Plant response rating, Sedge, Umbrella [1, 4] | Plant response rating (scale of 0 to 100), Sedge, Umbrella ([1]; 31 g ai/ha) | Plant response rating (scale of 0 to 100), Sedge, Umbrella ([1]; 62 g ai/ha) | Plant response rating (scale of 0 to 100), Sedge, Umbrella ([1]; 125 g ai/ha) | Plant response rating, Barnyardgrass [2, 4] | Plant response rating (scale of 0 to 100), Barnyardgrass ([2]; 31 g ai/ha) | Plant response rating (scale of 0 to 100), Barnyardgrass ([2]; 62 g ai/ha) | Plant response rating (scale of 0 to 100), Barnyardgrass ([2]; 125 g ai/ha) | Plant response rating, Ducksalad [3, 4] | Plant response rating (scale of 0 to 100), Ducksalad ([3]; 31 g ai/ha) | Plant response rating (scale of 0 to 100), Ducksalad ([3]; 62 g ai/ha) | Plant response rating (scale of 0 to 100), Ducksalad ([3]; 125 g ai/ha) | Plant response rating (scale of 0 to 100), Sedge, Umbrella ([1]; 250 g ai/ha) | Plant response rating (scale of 0 to 100), Barnyardgrass ([2]; 250 g ai/ha) | Plant response rating (scale of 0 to 100), Ducksalad ([3]; 250 g ai/ha) |
| --- | --- | --- | --- | --- | --- | --- | --- | --- | --- | --- | --- | --- | --- | --- | --- |
| Cc1ccc(C2CN(C)C(=O)C2C(=O)Nc2ccccc2F)cc1F (stereo not drawn) [Compound 465] | 0 | 0 | 0 | 0 | 0 | 25 | 45 | 70 | 0 | 45 | 65 | 90 |  |  |  |
| CN1CC(c2ccc(F)c(C(F)(F)F)c2)C(C(=O)Nc2ccccc2S(C)(=O)=O)C1=O (stereo not drawn) [Compound 612] |  | 0 | 0 | 0 |  | 0 | 0 | 0 |  | 0 | 0 | 0 | 0 | 55 | 55 |
